Consider two sequences from patent publication US20210268101A1 (priority 2020, published 2021).

The assay deals with Balb/c mice. The following applies: serum 1:50.

Several values for one entry are separate records, joined by “and”; a condition that tells them apart may be missing. Equal entries are not always repeated. Where two headings read alike, the source gives them in different places.

Experimental: Serum was obtained on days 10, 19, 28 and 42. Antibodies were assayed at a 1:50 dilution on Neutravidin assay plates coated with Biotin-NP146 Biotin-NP350 or Biotin-Ova8 (controls).

As for “DLLKNGERIEKVEGGGVILLNKHIDAYKTF [J-NP350]”, the “Responders/Group Total (n = 8)” value is reported as 7/8 (cutoff OD 0.3 (A450), Day 19); 8/8 (cutoff OD 0.3 (A450), Day 28); 8/8 (cutoff OD 0.3 (A450), Day 42); 7/8 (cutoff OD 0.5 (A450), Day 19); 8/8 (cutoff OD 0.5 (A450), Day 28); 8/8 (cutoff OD 0.5 (A450), Day 42). In addition, the “Responders/Group Total (n = 8)” value was 0/8 (cutoff OD 1.0 (A450), Day 10); 6 and 6/8 (cutoff OD 1.0 (A450), Day 19); 8/8 (cutoff OD 1.0 (A450), Day 28); 8/8 (cutoff OD 1.0 (A450), Day 42); 0/8 (cutoff OD 1.5 (A450), Day 10); 1/8 (cutoff OD 1.5 (A450), Day 19). Besides, the “Responders/Group Total (n = 8)” value (cutoff OD 1.5 (A450), Day 28) was 2/8; the “Responders/Group Total (n = 8)” value (cutoff OD 1.5 (A450), Day 42) was 6 and 6/8.

On to “DGQEEKAGVVSTGLIGGGVILLNKHIDAYKTF [DerG-NP350]”, for which the “Responders/Group Total (n = 8)” value (cutoff OD 0.3 (A450), Day 10) was 8 and 8/8; the “Responders/Group Total (n = 8)” value (cutoff OD 0.3 (A450), Day 19) is 8/8; the “Responders/Group Total (n = 8)” value (cutoff OD 0.3 (A450), Day 28) was 8/8; the “Responders/Group Total (n = 8)” value (cutoff OD 0.3 (A450), Day 42) is on record as 8/8; the “Responders/Group Total (n = 8)” value (cutoff OD 0.5 (A450), Day 10) was 8 and 8/8; the “Responders/Group Total (n = 8)” value (cutoff OD 0.5 (A450), Day 19) is recorded as 8/8. For the same sequence, the “Responders/Group Total (n = 8)” value by setting is: (cutoff OD 0.5 (A450), Day 28) 8/8; (cutoff OD 0.5 (A450), Day 42) 8/8; (cutoff OD 1.0 (A450), Day 10) 2/8; (cutoff OD 1.0 (A450), Day 28) 8/8; (cutoff OD 1.0 (A450), Day 42) 8/8; (cutoff OD 1.5 (A450), Day 10) 0/8. The “Responders/Group Total (n = 8)” value runs as follows: (cutoff OD 1.5 (A450), Day 28) 8/8; (cutoff OD 1.5 (A450), Day 42) 8/8.
